Results as given in patent US20240002499A1, “ANTI-CLIC1 PROTEIN ANTIBODIES AND THE DIAGNOSTIC AND THERAPEUTIC USES THEREOF” (Universita' Degli Studi di Milano, priority 2020, published 2024).
“Also recorded” adds a separate entry of the source.

Columns and labels:
[1] = test system: COLO201; assay: COLO201 spheroids, 3D culture; format: cell-based; conditions: treated 24 to 96 hours, area normalized on initial area
Description: To evaluate whether tmCLIC1omab is able to penetrate across tumor spheroids, a 3D culture was performed. After the complete formation of spheroids, treatments were added and the area was measured every 24 hours up to 96 hours. The area at each time point was then normalized on the initial spheroids' area.
Spheroids were formed with hanging-drop method and then plated in rounded 96 plates coated with 5% of agar. After the complete formation of spheroids, treatments were added and the area was measured every 24 hours up to 96 hours. The area at each time point was then normalized on the initial spheroids' area.

[2] = test system: tumour cells; conditions: both in vitro and in vivo; cited from earlier work
[3] = test system: human glioblastoma cells; assay: ROS production in human glioblastoma cells in primary culture; format: cell-based
Description: In the subsequent functional experiment, ROS production was measured over time. The graph in FIG. 11 relates to the acquisition of fluorescence signals proportional to the amount of cytoplasmic ROS in glioblastoma cells. The cells were treated with both the antibody and the tmCLIC1 channel blocker.

[4] = test system: Metalloproteinase 7 (MMP7); assay: Western blot of Metalloproteinase 7 in COLO201; format: cell-based; conditions: COLO201, 72 h of treatment
[5] = target: T1, CLIC1 (Homo sapiens, UniProt O00299); assay: Whole-cell patch clamp on HEK cells transfected with CLIC1 plasmid; format: cell-based; conditions: HEK cells overexpressing CLIC1; voltage steps from −60 to +80 mV; IAA94 50 μM
T1 construct: expressed in transfected cells; host or cells: HEK cells
Description: FIG. 17. Current/voltage relationship of CLIC1 membrane current in whole-cell patch clamp experiments. HEK cells were transfected with CLIC1 plasmid to overexpress the CLIC1 protein. After recording control current (filled cycles; n=5) cells were perfused alternatively with the polyclonal antibody (open triangles; n=7), tmCLIComab (inverse open triangles; n=10) and with 50 μM IAA94 (filled squared; n=11). The whole cells current is expressed as a current density.
The reference sequence of the CLIC1 protein used in the experiments described in the present patent application is filed at UniProt under number UniProtKB—000299 (CLIC1 human), and described in the article Harrop S. J. et al., “Crystal structure of a soluble form of the intracellular chloride ion channel CLIC1 (NCC27) at 1.4-Å Resolution”; The Journal of Biological Chemistry, Vol. 276 No. 48, November 30, pp. 44993-45000 (2001).
The potential was set on the basis of the resting potential of each cell (between 0 and −80 mV). The CLIC1-mediated chlorine currents were isolated from other ion currents by mathematical subtraction of the residual current following perfusion of 100 μM IAA94 dissolved in the external solution.

[6] = target: T2, tmCLIC1 ion channel (Mus musculus, UniProt Q9Z1Q5); assay: Whole-cell patch clamp on BV2 microglial cells with β-amyloid; format: cell-based, mice; conditions: blocker perfused after tmCLIC1omab
T2 construct: endogenous in cells; host or cells: BV-2 mouse microglial cell line
From the text: The microglial cells used (BV-2) originated from an immortalised cell line deriving from C57BL/6 mice and commonly marketed. The culture medium used was RPMI (Thermo Fisher Scientific) with the addition of 10% FBS (Euroclone) and 1% Pen/Strep ([…], Thermo Fisher Scientific).
The microelectrodes were obtained from borosilicate capillaries with a diameter of 1.5 mm. Micropipettes were produced with a P-97 Brown-Flaming puller (Sutter Instruments, Novato, CA), with which the capillaries were forged to a tip diameter of 1-1.5 μm and electrical resistance of 5-8 MΩ.
The perforated patch clamp configuration was used for the whole-cell experiments, employing the antibiotic gramicidin (final concentration in pipette 5 μg/ml) which forms pores in the membrane that are only permeable to monovalent cations; in this way, the cytoplasmic concentration of the chloride ion remains unchanged throughout the experiment. The ion currents were digitised at 5 kHz and filtered at 1 kHz. Clampex 9.2 was used as the data acquisition and analysis programme.
In the time-course experiments, the potential was set on the basis of the resting potential of each cell, and a voltage step of +60 mV was applied every 5 seconds. The current measured is that observed at the end of the voltage step lasting 800 ms. When the amplitude of the current reaches a constant value, the antibody and IAA94 are added in sequence. […]

[7] = test system: COLO201; assay: Trans well migration and invasion assay; format: cell-based; conditions: COLO201 WT, 72 h
Description: The overexpression of tmCLIC1 in the most aggressive cell lines of colorectal cancer and its pivotal role in regulation of cell cycle progression and proliferation, opens a question on the function of tmCLIC1 activity on migration and invasion potential of CRCs, that makes colorectal cancer still uncurable. We performed a Trans well assay to understand whether CLIC1 impairment could affect the migration and invasion potential of COLO201. Cells were plated after 60 hours of serum deprivation on a porous membrane, permeable only to growth factor, in contact to complete medium. The resulting chemo-attractant gradient leads the migrative cells to cross the membranes that are then stained with DAPI to visualize the nuclei. […] For invasion assays, we coated with Matrigel the porous membrane to mimic the extracellular matrix that cells must disrupt to invade tissues and mucosa.
Cells were plated after 60 hours of serum deprivation on a […] porous membrane, permeable only to growth factor, in contact to complete medium. Membranes were cut, stained with DAPI dye, and included with mowiol. Cover glasses were examined under Zeiss Examiner A1 fluorescence microscope with a Zeiss 40×/0.75 NA water immersion lens.

[8] = test system: pMAP38; assay: Western blot of phosphorylated MAP38 in COLO201; format: cell-based; conditions: COLO201, 72 h of treatment
[9] = cited from earlier work
[10] = test system: human glioblastoma cells; assay: Growth curves of human glioblastoma cells in primary culture; format: cell-based; conditions: glioblastoma cells, FIG. 9
From the text: The primary glioblastoma cell lines, already tested for stem cell properties and carcinogenicity, were kindly supplied by Professor T. Florio's laboratory at Genoa University (Genoa, Italy). The cells were obtained from a surgical biopsy performed in the Neurosurgery Department of IRCCS-AOU San Martino IST (Genoa, Italy), from patients who had not received any treatment before the operation. The samples were histologically classified as GB grade IV (according to the WHO classification), and were used after obtaining the patients' informed consent and the approval of the Institutional Ethics Committee (IEC). The cells were cultured in stem cell-permissive medium consisting of Dulbecco's Modified Eagle's Medium (DMEM) and F12-GlutaMAX at the ratio of 1:1, supplemented with 1×B27 (Thermo Fisher Scientific), […] of fibroblast growth factor (FGF, Miltenyi Biotec), […] of human epidermal growth factor (EGF, Miltenyi Biotec) and 1% penicillin/streptomycin (Pen/Strep, […]) (Thermo Fisher Scientific).
The cells were seeded in 24-well plates (20,000 cells/well) and counted after 24, 48, 72 and 96 hours to construct the growth curve. The cells were collected and centrifuged, and the resuspended pellet was diluted 1:1 with Trypan Blue. An automated counter (Countess II, Thermo Fisher Scientific) was used to count the cells. All data were normalized to their controls.

- inhibition of CLIC1 ionic whole-cell current [5]: maximum inhibition
Structure (SMILES): C[C@]1(C2CCCC2)Cc2cc(OCC(=O)O)c(Cl)c(Cl)c2C1=O [IAA94, R(+)-[(6,7-dichloro-2-cyclopentyl-2,3-dihydro-2-methyl-1-oxo-1H-inden-5-yl)-oxy]acetic acid, reference compound]
- spheroids' area / proliferation of spheroids versus control [1]: significantly smaller compared to the control from 48 h; also recorded: impair proliferation of spheroids significantly after 48 hours
- proliferation of the tumour cells [2]: drastic slowing
- fall in ROS production ([3]; FIG. 11 legend, versus control): about fourfold
- reduction of the slope of the ROS increase curve ([3]; fluorescence signals proportional to cytoplasmic ROS): about fivefold
- expression of Metalloproteinase 7 [4]: mainly abolished
- further decrease in membrane current after antibody treatment [6]: only generates a minimal decrease in current
- migration (number of migrative nuclei) versus control [7]: significant lower number of migrative nuclei
- invasion (number of invasive nuclei) versus control ([7]; Matrigel-coated membrane): the same behavior seen for migration assay
- expression of pMAP38 [8]: downregulated
- usability in vivo / side effects [9]: unusable in vivo for its side effects
- growth rate compared with Clic1−/− knockout cells [10]: the same growth rate
